Data as given in doi:10.1101/2025.03.13.643086, “Granzyme-targeting quenched activity-based probes for assessing tumor response to immunotherapy” (bioRxiv, 2025).

System: GzmB activity in NK-92 cells
Experiment: Flow cytometry analysis of protein labeling by ABPs in NK-92 and MDA-MB-231 cells
Assay type: cell-based, human
Details: 5 μM
Description: Figure 3. GzmB ABPs selectively label active GzmB in cells. (A) Gel-based analysis of GzmB labeling by ABPs in NK-92 cells. 5x10^5 NK-92 cells were incubated with each ABP at varying concentrations for 2 h at 37 °C. After cell lysis, protein samples were analyzed by SDS-PAGE and in-gel fluorescence scanning for Cy5 signal. Expression of GzmB was confirmed by western blotting. (B) Gel-based analysis of GzmB labeling by qABP 10 in different cells. 2x10^6 NK-92, MDA-MB-231, Jurkat, and HEK cells were incubated with compound 10 (5 μM) at 37 °C for 2 h. After cell lysis, protein samples were analyzed by SDS-PAGE and in-gel fluorescence scanning for Cy5 signal. […] Protein samples were analyzed by SDS-PAGE and in-gel fluorescence scanning for Cy5 signal. […] Top: Histogram; Bottom: Mean fluorescence intensity (MFI) in MDA-MB-231 cells. […]
Histogram of flow cytometry data for NK-92 cells incubated with qABP 10. Right: Quantification of mean Cy5 fluorescence intensity. […]
3-5 mice/group. For all studies, mice were monitored by daily observation and serial tumor measurements and body weights.
Mice were treated with 20 mg/kg BEC i.v., 10 mg/kg anti-PD1 i.p., 5 mg/kg anti-CTLA4 i.p. or a combination of 10 mg/kg anti-PD-1 and 5 mg/kg anti-CTLA4. […] On day 9 post-treatment, the mice were injected with 2 nmol/g GzmB qABP i.v., followed by fluorescence imaging at 2, 4, 8, and 24 h. […]

CC[C@H](C)[C@H](NC(=O)CCCCCN1/C(=C/C=C/C=C/C2=[N+](CC)c3ccc(S(=O)(=O)O)cc3C2(C)C)C(C)(C)c2cc(S(=O)(=O)O)ccc21)C(=O)N[C@@H](CCC(=O)O)C(=O)N1CCC[C@H]1C(=O)NC(CS(=O)(=O)O)P(=O)(Oc1ccc(CCNC(=O)C2CCN(S(=O)(=O)c3ccccc3-c3c4ccc(=[N+]5CCc6ccccc65)cc-4oc4cc(N5CCc6ccccc65)ccc34)CC2)cc1)c1ccccc1 (some centres unmarked) [Compound 10, Cy5-IEPCya^PhP-QSY21]
fluorescence intensity in NK-92 cells relative to GzmB non-expressing MDA-MB-231 cells: approximately 9.1 fold
signal-to-noise (S/N), NK-92 vs MDA-MB-231 cells (37 °C, 2 h): 9.09
